Assay results taken from the kinase profiling compilation of Christmann-Franck et al. (2016).

Experiments:
Assay in all cases: radiometric filter-binding kinase assay, Kinaseprofiler
[1] = target: AURKC (human) (UniProt Q9UQB9); details: ATP 15 µM
[2] = target: BMX (human) (UniProt P51813); details: ATP 45 µM
[3] = target: BRSK1 (human) (UniProt Q8TDC3); details: ATP 200 µM
[4] = system: BRSK2 (human), Q8IWQ3 [S251I]; details: ATP 70 µM
[5] = target: CDK1 CCNB1 (human) (UniProt P06493+P14635); details: ATP 45 µM
[6] = target: CHEK1 (human) (UniProt O14757); details: ATP 90 µM
[7] = target: CHEK2 (human) (UniProt O96017); details: ATP 70 µM
[8] = target: CSF1R (human) (UniProt P07333); details: ATP 200 µM
[9] = target: CSK (human) (UniProt P41240); details: ATP 15 µM
[10] = target: DYRK2 (human) (UniProt Q92630); details: ATP 15 µM
[11] = target: EPHA3 (human) (UniProt P29320); details: ATP 120 µM
[12] = target: EPHB3 (human) (UniProt P54753); details: ATP 90 µM
[13] = target: EPHB4 (human) (UniProt P54760); details: ATP 10 µM
[14] = target: FER (human) (UniProt P16591); details: ATP 70 µM
[15] = target: FRK (human) (UniProt P42685); details: ATP 155 µM
[16] = target: INSRR (human) (UniProt P14616); details: ATP 200 µM
[17] = target: MAP3K9 (human) (UniProt P80192); details: ATP 45 µM
[18] = target: MAPK3 (human) (UniProt P27361); details: ATP 70 µM
[19] = target: MAPKAPK3 (human) (UniProt Q16644); details: ATP 90 µM
[20] = target: MYLK (human) (UniProt Q15746); details: ATP 70 µM
[21] = target: NEK6 (human) (UniProt Q9HC98); details: ATP 45 µM
[22] = target: NEK7 (human) (UniProt Q8TDX7); details: ATP 45 µM
[23] = target: PAK3 (human) (UniProt O75914); details: ATP 120 µM
[24] = target: PRKCE (human) (UniProt Q02156); details: ATP 45 µM
[25] = target: PRKCG (human) (UniProt P05129); details: ATP 15 µM
[26] = target: PRKX (human) (UniProt P51817); details: ATP 200 µM
[27] = target: PTK6 (human) (UniProt Q13882); details: ATP 15 µM
[28] = target: RET (human) (UniProt P07949); details: ATP 70 µM
[29] = target: RPS6KA3 KD1 KD2 (human) (UniProt P51812); details: ATP 10 µM
[30] = target: RPS6KA4 KD1 KD2 (human) (UniProt O75676); details: ATP 45 µM
[31] = target: ULK2 (human) (UniProt Q8IYT8); details: ATP 15 µM
[32] = target: VRK2 (human) (UniProt Q86Y07); details: ATP 70 µM
[33] = target: WNK2 (human) (UniProt Q9Y3S1); details: ATP 200 µM

Chain of DYRK2 (human) (Q92630 whole entry, looked up): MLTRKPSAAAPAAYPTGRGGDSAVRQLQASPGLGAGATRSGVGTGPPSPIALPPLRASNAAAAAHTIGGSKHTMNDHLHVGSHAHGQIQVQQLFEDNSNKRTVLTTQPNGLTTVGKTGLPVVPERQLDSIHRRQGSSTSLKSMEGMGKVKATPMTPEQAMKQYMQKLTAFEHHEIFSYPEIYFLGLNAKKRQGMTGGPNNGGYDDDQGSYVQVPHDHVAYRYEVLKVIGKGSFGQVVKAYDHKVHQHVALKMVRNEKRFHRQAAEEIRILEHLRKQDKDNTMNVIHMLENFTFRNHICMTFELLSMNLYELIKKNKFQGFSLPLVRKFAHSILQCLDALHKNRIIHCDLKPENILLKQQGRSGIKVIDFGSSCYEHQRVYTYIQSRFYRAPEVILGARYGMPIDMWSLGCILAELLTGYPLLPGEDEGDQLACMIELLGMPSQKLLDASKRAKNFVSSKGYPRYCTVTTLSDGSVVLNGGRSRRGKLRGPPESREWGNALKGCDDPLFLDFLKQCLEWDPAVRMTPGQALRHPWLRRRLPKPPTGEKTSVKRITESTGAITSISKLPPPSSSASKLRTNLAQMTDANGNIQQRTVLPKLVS
Chain of NEK7 (human) (Q8TDX7 whole entry, looked up): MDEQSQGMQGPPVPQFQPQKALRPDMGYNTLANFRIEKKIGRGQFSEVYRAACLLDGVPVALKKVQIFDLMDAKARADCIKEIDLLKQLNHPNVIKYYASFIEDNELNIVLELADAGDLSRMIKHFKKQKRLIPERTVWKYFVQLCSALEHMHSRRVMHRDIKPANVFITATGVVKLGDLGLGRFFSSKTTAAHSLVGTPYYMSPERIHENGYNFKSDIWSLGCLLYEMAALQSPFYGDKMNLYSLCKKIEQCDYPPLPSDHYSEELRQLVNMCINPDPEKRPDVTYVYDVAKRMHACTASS
Chain of BRSK1 (human) (Q8TDC3 whole entry, looked up): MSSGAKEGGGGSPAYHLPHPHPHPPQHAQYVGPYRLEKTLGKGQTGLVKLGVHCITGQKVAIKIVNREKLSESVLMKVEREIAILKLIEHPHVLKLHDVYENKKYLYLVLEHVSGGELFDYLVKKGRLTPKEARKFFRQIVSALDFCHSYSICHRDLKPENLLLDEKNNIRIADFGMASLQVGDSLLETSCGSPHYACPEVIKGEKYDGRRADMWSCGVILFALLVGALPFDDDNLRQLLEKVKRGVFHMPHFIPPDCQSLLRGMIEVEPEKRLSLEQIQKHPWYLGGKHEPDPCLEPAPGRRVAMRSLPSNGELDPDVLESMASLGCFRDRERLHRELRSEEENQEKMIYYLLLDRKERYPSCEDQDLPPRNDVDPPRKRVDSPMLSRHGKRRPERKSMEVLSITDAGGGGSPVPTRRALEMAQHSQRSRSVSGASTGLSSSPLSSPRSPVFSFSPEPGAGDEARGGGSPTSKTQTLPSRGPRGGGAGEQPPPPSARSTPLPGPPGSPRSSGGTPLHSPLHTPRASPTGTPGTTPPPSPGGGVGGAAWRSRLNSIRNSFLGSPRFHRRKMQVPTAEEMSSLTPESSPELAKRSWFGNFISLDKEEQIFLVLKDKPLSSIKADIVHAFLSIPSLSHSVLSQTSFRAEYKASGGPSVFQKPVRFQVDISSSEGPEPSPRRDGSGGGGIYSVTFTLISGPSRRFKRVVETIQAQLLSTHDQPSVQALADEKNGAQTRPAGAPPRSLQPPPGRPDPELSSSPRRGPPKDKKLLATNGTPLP
Chain of ULK2 (human) (Q8IYT8 whole entry, looked up): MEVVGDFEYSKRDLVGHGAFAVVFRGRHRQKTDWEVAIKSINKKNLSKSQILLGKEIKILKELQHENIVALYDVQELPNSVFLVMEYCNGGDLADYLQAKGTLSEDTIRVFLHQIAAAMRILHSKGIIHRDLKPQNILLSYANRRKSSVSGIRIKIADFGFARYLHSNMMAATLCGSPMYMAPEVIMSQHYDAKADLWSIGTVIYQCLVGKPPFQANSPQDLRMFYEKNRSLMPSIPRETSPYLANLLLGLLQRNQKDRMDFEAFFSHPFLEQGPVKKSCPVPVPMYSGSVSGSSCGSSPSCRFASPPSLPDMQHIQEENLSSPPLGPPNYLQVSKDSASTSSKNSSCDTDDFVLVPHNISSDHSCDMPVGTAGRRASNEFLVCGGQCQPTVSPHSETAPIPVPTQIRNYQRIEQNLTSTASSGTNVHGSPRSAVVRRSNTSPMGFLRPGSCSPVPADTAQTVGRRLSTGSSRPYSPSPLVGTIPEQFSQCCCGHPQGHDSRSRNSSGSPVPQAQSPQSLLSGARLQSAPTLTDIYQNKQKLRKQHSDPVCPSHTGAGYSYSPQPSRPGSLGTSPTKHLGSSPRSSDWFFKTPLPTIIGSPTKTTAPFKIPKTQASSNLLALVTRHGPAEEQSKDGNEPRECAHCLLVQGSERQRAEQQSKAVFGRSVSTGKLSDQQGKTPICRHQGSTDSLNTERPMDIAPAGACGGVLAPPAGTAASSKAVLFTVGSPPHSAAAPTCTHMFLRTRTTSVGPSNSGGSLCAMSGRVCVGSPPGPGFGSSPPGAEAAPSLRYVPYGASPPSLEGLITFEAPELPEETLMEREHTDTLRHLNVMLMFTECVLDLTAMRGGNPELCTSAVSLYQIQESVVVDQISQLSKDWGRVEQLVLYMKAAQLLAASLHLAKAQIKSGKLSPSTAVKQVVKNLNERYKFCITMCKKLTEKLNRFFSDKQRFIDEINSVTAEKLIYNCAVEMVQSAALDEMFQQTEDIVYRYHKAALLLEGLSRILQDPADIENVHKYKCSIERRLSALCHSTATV
Chain of EPHA3 (human) (P29320 whole entry, looked up): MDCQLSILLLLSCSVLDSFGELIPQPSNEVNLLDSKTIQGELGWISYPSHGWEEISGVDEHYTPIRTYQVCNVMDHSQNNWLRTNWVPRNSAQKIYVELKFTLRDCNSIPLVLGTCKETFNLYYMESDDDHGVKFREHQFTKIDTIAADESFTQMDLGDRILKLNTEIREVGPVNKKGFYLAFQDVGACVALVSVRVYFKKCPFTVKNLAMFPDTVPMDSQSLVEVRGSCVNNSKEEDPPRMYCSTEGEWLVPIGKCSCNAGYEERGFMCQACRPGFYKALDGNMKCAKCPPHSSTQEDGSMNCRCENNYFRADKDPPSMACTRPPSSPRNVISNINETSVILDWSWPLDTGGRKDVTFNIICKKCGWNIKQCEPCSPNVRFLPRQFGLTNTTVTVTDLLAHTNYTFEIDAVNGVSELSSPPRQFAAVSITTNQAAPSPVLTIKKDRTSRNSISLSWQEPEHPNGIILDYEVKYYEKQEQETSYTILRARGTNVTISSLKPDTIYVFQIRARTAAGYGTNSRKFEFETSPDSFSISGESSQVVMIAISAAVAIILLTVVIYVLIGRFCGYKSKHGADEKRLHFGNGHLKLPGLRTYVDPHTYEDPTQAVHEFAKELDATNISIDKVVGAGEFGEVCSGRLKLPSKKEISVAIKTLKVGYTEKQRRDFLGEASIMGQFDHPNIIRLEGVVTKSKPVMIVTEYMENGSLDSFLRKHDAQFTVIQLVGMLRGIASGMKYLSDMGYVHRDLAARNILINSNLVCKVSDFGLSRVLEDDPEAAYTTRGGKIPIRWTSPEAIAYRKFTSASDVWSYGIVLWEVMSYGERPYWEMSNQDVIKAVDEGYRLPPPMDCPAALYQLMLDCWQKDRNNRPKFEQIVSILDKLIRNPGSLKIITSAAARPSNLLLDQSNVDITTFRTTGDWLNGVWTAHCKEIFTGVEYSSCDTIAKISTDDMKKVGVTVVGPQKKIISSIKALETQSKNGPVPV
Chain of FER (human) (P16591 whole entry, looked up): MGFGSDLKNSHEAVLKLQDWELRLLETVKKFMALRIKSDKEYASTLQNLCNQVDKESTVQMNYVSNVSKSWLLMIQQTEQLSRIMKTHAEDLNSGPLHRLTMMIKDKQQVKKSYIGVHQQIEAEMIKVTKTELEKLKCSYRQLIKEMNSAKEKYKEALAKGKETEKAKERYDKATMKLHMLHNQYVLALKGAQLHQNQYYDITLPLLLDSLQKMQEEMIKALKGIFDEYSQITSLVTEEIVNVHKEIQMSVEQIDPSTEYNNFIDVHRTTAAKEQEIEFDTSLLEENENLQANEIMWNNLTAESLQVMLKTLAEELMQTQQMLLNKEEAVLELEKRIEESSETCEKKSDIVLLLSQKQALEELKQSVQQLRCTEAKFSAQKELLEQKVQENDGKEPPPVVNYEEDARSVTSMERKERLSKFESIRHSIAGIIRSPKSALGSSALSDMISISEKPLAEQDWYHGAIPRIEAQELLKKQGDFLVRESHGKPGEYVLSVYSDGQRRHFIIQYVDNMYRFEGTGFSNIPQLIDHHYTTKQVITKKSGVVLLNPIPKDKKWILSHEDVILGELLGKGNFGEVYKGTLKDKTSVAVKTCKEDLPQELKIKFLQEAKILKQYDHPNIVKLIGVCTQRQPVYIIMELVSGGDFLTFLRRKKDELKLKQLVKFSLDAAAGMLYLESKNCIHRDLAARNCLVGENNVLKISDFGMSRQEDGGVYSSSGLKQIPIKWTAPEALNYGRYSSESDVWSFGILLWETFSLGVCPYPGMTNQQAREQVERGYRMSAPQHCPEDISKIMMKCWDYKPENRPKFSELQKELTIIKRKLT
Chain of CHEK2 (human) (O96017 whole entry, looked up): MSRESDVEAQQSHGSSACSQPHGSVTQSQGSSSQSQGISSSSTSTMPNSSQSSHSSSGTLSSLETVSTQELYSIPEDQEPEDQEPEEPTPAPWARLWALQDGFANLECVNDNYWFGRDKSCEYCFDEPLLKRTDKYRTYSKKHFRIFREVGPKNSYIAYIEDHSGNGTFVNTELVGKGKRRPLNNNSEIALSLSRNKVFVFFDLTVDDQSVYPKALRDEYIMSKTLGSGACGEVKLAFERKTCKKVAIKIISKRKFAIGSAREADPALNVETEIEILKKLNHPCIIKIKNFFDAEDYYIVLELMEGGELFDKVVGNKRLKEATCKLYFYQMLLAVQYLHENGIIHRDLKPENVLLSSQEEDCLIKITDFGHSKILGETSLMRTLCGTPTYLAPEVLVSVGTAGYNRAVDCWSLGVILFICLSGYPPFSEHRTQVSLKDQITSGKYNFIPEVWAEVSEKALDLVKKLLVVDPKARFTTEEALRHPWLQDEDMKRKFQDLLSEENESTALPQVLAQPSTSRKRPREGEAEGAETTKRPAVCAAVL

`O=C1Nc2ccccc2/C1=C1\Nc2ccccc2\C1=N/O` was tested, and the residual activity ([1]; compound 1.0 µM) was 61%, the residual activity ([1]; compound 10.0 µM) was 49% and the residual activity ([2]; compound 1.0 µM) was 21%. The residual activity ([2]; compound 10.0 µM) was 4%, the residual activity ([3]; compound 1.0 µM) was 13% and the residual activity ([3]; compound 10.0 µM) was 12%. It also gave a residual activity ([4]; compound 1.0 µM) of 10%, a residual activity ([4]; compound 10.0 µM) of 5% and a residual activity ([5]; compound 1.0 µM) of 35%. For the same compound, the residual activity ([5]; compound 10.0 µM) was 19%, the residual activity ([6]; compound 1.0 µM) was 65% and the residual activity ([6]; compound 10.0 µM) was 30%. For the same compound, the residual activity ([7]; compound 1.0 µM) was 13%, the residual activity ([7]; compound 10.0 µM) was 2% and the residual activity ([8]; compound 1.0 µM) was 15%. For the same compound, the residual activity ([8]; compound 10.0 µM) was 8%, the residual activity ([9]; compound 1.0 µM) was 101% and the residual activity ([9]; compound 10.0 µM) was 78%. The residual activity ([10]; compound 1.0 µM) was 79%, the residual activity ([10]; compound 10.0 µM) was 20% and the residual activity ([11]; compound 1.0 µM) was 58%. It also gave a residual activity ([11]; compound 10.0 µM) of 9%, a residual activity ([12]; compound 1.0 µM) of 105% and a residual activity ([12]; compound 10.0 µM) of 103%. It also gave a residual activity ([13]; compound 1.0 µM) of 67%, a residual activity ([13]; compound 10.0 µM) of 13% and a residual activity ([14]; compound 1.0 µM) of 70%. It also gave a residual activity ([14]; compound 10.0 µM) of 53%, a residual activity ([15]; compound 1.0 µM) of 13% and a residual activity ([15]; compound 10.0 µM) of 6%. The residual activity ([16]; compound 1.0 µM) was 2%, the residual activity ([16]; compound 10.0 µM) was 1% and the residual activity ([17]; compound 1.0 µM) was 6%. The residual activity ([17]; compound 10.0 µM) was 1%, the residual activity ([18]; compound 1.0 µM) was 114% and the residual activity ([18]; compound 10.0 µM) was 101%. It also gave a residual activity ([19]; compound 1.0 µM) of 117%, a residual activity ([19]; compound 10.0 µM) of 88% and a residual activity ([20]; compound 1.0 µM) of 46%. The residual activity ([20]; compound 10.0 µM) was 13%, the residual activity ([21]; compound 1.0 µM) was 91% and the residual activity ([21]; compound 10.0 µM) was 103%. It also gave a residual activity ([22]; compound 1.0 µM) of 106%, a residual activity ([22]; compound 10.0 µM) of 102% and a residual activity ([23]; compound 1.0 µM) of 88%. For the same compound, the residual activity ([23]; compound 10.0 µM) was 57%, the residual activity ([24]; compound 1.0 µM) was 106% and the residual activity ([24]; compound 10.0 µM) was 91%. For the same compound, the residual activity ([25]; compound 1.0 µM) was 92%, the residual activity ([25]; compound 10.0 µM) was 73% and the residual activity ([26]; compound 1.0 µM) was 48%. For the same compound, the residual activity ([26]; compound 10.0 µM) was 33%, the residual activity ([27]; compound 1.0 µM) was 91% and the residual activity ([27]; compound 10.0 µM) was 23%. For the same compound, the residual activity ([28]; compound 1.0 µM) was 1%, the residual activity ([28]; compound 10.0 µM) was 0% and the residual activity ([29]; compound 1.0 µM) was 50%. For the same compound, the residual activity ([29]; compound 10.0 µM) was 7%, the residual activity ([30]; compound 1.0 µM) was 32% and the residual activity ([30]; compound 10.0 µM) was 4%. For the same compound, the residual activity ([31]; compound 1.0 µM) was 93%, the residual activity ([31]; compound 10.0 µM) was 59% and the residual activity ([32]; compound 1.0 µM) was 71%. The residual activity ([32]; compound 10.0 µM) was 28%, the residual activity ([33]; compound 1.0 µM) was 90% and the residual activity ([33]; compound 10.0 µM) was 55%.
